Laboratory results as given in patent publication US8673938B2, “Chemical compounds” (priority 2006, dated 2014).

target: human 11βHSD1 enzyme (Homo sapiens (Human), UniProt P28845); assay: biochemical; conditions: read-out: % inhibition of human 11-βHSD
Sequence (P28845 whole entry): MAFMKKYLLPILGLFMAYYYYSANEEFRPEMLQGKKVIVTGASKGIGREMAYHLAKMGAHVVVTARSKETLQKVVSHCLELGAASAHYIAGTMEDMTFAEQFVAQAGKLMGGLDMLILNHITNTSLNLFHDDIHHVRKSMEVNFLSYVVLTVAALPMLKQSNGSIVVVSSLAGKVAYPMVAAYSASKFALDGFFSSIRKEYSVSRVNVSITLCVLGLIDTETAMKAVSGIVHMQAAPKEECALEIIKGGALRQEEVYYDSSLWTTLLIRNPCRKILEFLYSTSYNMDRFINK
Method: The evaluation of compounds described herein was carried out using a baculovirus expressed N terminal 6-His tagged full length human 11βHSD1 enzyme(*1). […] Inhibitors of 11βHSD1 reduce the conversion of cortisone to cortisol, which is identified by an increase in signal, in the above assay.
Compounds to be tested were dissolved in dimethyl sulphoxide (DMSO) to 10 mM and diluted further in assay buffer containing 1% DMSO to 10 fold the final assay concentration. Diluted compounds were then plated into black 384 well plates (Matrix, Hudson N.H., USA).
The assay plates were incubated for 25 minutes at 37° C. after which time the reaction was stopped by the addition of 10 μl of 0.5 mM glycerrhetinic acid plus conjugated cortisol (XL665 or D2). 10 μl of anti-cortisol Cryptate was then added and the plates sealed and incubated for 6 hours at room temperature.

Q: Which inhibition at 30 µM does the source give for `CCCSc1nc(N2CCC(OCC(=O)O)C2)ccc1C(=O)NC1CCCCC1` (stereo not drawn) [Example 43, 2-[1-[5-(cyclohexylcarbamoyl)-6-propylsulfanyl-pyridin-2-yl]pyrrolidin-3-yl]oxyacetic acid] here?
A: Its inhibition at 30 µM is 92%.

Q: With `O=C(O)CO[C@H]1CCN(c2ccc(C(=O)NC3C4CC5CC(C4)CC3C5)c(SC3CCCCC3)n2)C1` (stereo partly drawn) [Example 71, 2-[(3S)-l-[5-(2-adamantylcarbamoyl)-6-cyclohexylsulfanyl-pyridin-2-yl]pyrrolidin-3-yl]oxyacetic acid] as the compound, how does the inhibition at 30 µM read?
A: Its inhibition at 30 µM is 92%.

Q: For `O=C(O)C[C@@H]1CCCN(c2ccc(C(=O)N[C@H]3C4CC5CC3C[C@](OC(F)F)(C5)C4)c(SC3CCCC3)n2)C1` [Example 178, 2-[(3S)-1-[6-Cyclopentylsulfanyl-5-[[(2r,5s)-5-(difluoromethoxy)-2-adamantyl]carbamoyl]pyridin-2-yl]-3-piperidyl]acetic acid], which inhibition at 30 µM is on record?
A: The inhibition at 30 µM was 93%.

Q: Which inhibition at 30 µM does the source give for `CCCSc1nc(N2CCC(CC(=O)O)CC2)ccc1C(=O)N[C@H]1C2CC3CC1C[C@@](O)(C3)C2` [Example 86, 2-[1-[5-[[(2r,5s)-5-hydroxy-2-adamantyl]carbamoyl]-6-propylsulfanyl-pyridin-2-yl]-4-piperidyl]acetic acid] here?
A: The inhibition at 30 µM was 90%.

Q: Which inhibition at 30 µM does the source give for `O=C(O)C[C@@H]1CCCN(c2ccc(C(=O)NC3CCCCC3)c(OCCc3ccc(F)cc3)n2)C1` [compound 135, 2-[(3S)-1-[5-(cyclohexyl-carbamoyl)-6-[2-(4-fluorophenyl)ethoxy]pyridin-2-yl]-3-piperidyl] acetic acid] here?
A: Its inhibition at 30 µM is 92%.

Q: With `CCCSc1nc(N2CCOC(C(=O)O)C2)ccc1C(=O)NC1CCCCC1` (stereo not drawn) [Example 51, 4-[5-(cyclohexylcarbamoyl)-6-propylsulfanyl-pyridin-2-yl]morpholine-2-carboxylic acid] as the compound, how does the inhibition at 30 µM read?
A: Its inhibition at 30 µM is 90%.

Q: With `O=C(O)C[C@@H]1CCCN(c2ccc(C(=O)NC3CCCCC3)c(SCCc3ccccc3)n2)C1` [Example 130, 2-[(3S)-1-[5-(cyclohexylcarbamoyl)-6-phenethylsulfanyl-pyridin-2-yl]-3-piperidyl]acetic acid] as the compound, how does the inhibition at 30 µM read?
A: The inhibition at 30 µM was 91%.

Q: With `CCCSc1nc(N2CCC(C3(C(=O)O)CCC3)CC2)ccc1C(=O)NC1CCCCC1` [Example 49, 1-[1-[5-(cyclohexylcarbamoyl)-6-propylsulfanyl-pyridin-2-yl]-4-piperidyl]cyclobutane-1-carboxylic acid] as the compound, how does the inhibition at 30 µM read?
A: Its inhibition at 30 µM is 77%.

Q: Which inhibition at 30 µM does the source give for `CCCSc1nc(Oc2ccc(CCC(=O)O)cc2)ccc1C(=O)NC1CCCCC1` [Example 18, 3-[4-[5-(cyclohexylcarbamoyl)-6-propylsulfanyl-pyridin-2-yl]oxyphenyl]propanoic acid] here?
A: The inhibition at 30 µM was 81%.

Q: With `O=C(O)C[C@H]1CCN(c2ccc(C(=O)NC3CCCCC3)c(SC3CCCCC3)n2)C1` [Example 57, 2-[(3R)-1-[5-(cyclohexylcarbamoyl)-6-cyclohexylsulfanyl-pyridin-2-yl]pyrrolidin-3-yl]acetic acid] as the compound, how does the inhibition at 30 µM read?
A: Its inhibition at 30 µM is 97%.

Q: Which inhibition at 30 µM does the source give for `CC(C)CCSc1nc(N2CC[C@@H](C(=O)O)C2)ccc1C(=O)N[C@H]1C2CC3CC1C[C@@](O)(C3)C2` [Example 105] here?
A: The inhibition at 30 µM was 92%.

Q: With `CCCSc1nc(N2CCC[C@@H](CC(=O)O)C2)ccc1C(=O)N(C)[C@H]1C2CC3CC1C[C@](OC)(C3)C2` [Example 170, [(3S)-1-[5-[((2r,5s)-5-Methoxyadamantan-2-yl)(methyl)carbamoyl]-6-(propylthio)pyridin-2-yl]piperidin-3-yl]acetic acid] as the compound, how does the inhibition at 30 µM read?
A: The inhibition at 30 µM was 92%.

Q: Which inhibition at 30 µM does the source give for `CCCSc1nc(N2CCC[C@@H](CC(=O)O)C2)ccc1C(=O)NC1CCOCC1` [Example 173] here?
A: The inhibition at 30 µM was 92%.

Q: `CCCSc1nc(N2CCC[C@@H](CC(=O)O)C2)ccc1C(=O)N1CCC(c2ccccn2)C1` (stereo partly drawn) [Example 114, 2-[(3S)-1-[6-propylsulfanyl-5-(3-pyridin-2-ylpyrrolidine-1-carbonyl)pyridin-2-yl]-3-piperidyl]acetic acid] was tested. Which inhibition at 30 µM did it give?
A: Its inhibition at 30 µM is 101%.

Q: Which inhibition at 30 µM does the source give for `O=C(O)C[C@H]1CCN(c2ccc(C(=O)N[C@H]3C4CC5CC3C[C@@](O)(C5)C4)c(SC3CCCC3)n2)C1` [Example 95, 2-[(3R)-1-[6-cyclopentylsulfanyl-5-[((2r,5s)-5-hydroxy-2-adamantyl)carbamoyl]pyridin-2-yl]pyrrolidin-3-yl]acetic acid] here?
A: Its inhibition at 30 µM is 88%.

Q: With `CCCSc1nc(N2CCC[C@@H](CC(=O)O)C2)ccc1C(=O)NC1C2CC3CC(C2)CC1C3` (stereo partly drawn) [Example 59, 2-[(3S)-1-[5-(2-adamantylcarbamoyl)-6-propylsulfanyl-pyridin-2-yl]-3-piperidyl]acetic acid] as the compound, how does the inhibition at 30 µM read?
A: Its inhibition at 30 µM is 94%.

Q: With `CCCSc1nc(Oc2ccc(OCC(=O)O)cc2)ccc1C(=O)NC1CCCCC1` [Example 20, 2-[4-[5-(cyclohexylcarbamoyl)-6-propylsulfanyl-pyridin-2-yl]oxyphenoxy]acetic acid] as the compound, how does the inhibition at 30 µM read?
A: Its inhibition at 30 µM is 89%.

Q: Which inhibition at 30 µM does the source give for `O=C(O)CO[C@@H]1CCN(c2ccc(C(=O)NC3C4CC5CC(C4)CC3C5)c(SC3CCCCC3)n2)C1` (stereo partly drawn) [Example 72, 2-[(3R)-1-[5-(2-adamantylcarbamoyl)-6-cyclohexylsulfanyl-pyridin-2-yl]pyrrolidin-3-yl]oxyacetic acid] here?
A: Its inhibition at 30 µM is 84%.

Q: For `CCCSc1nc(N2CCN(CC(=O)O)CC2)ccc1C(=O)NC1CCCCC1` [Example 8, 2-[4-[5-(cyclohexylcarbamoyl)-6-propylsulfanyl-pyridin-2-yl]piperazin-1-yl]acetic acid], which inhibition at 30 µM is on record?
A: The inhibition at 30 µM was 78%.

Q: Which inhibition at 30 µM does the source give for `CCCSc1nc(N2CCC[C@@H](CC(=O)O)C2)ccc1C(=O)N1CCC(c2ccccc2C(F)(F)F)C1` (stereo partly drawn) [Example 126, 2-[(3S)-1-[6-propylsulfanyl-5-[3-[2-(trifluoromethyl)phenyl]pyrrolidine-1-carbonyl]pyridin-2-yl]-3-piperidyl]acetic acid] here?
A: The inhibition at 30 µM was 87%.

Q: `CCCSc1nc(Oc2ccc(C(=O)O)cc2)ccc1C(=O)NC1CCCCC1` [Example 16, 4-[5-(cyclohexylcarbamoyl)-6-propylsulfanyl-pyridin-2-yl]oxybenzoic acid] was tested. Which inhibition at 30 µM did it give?
A: Its inhibition at 30 µM is 43%.

Q: For `CCCSc1nc(N2CCC[C@@H](CC(=O)O)C2)ccc1C(=O)N[C@H]1C2CC3CC1C[C@@](O)(C3)C2` [Example 83], which inhibition at 30 µM is on record?
A: Its inhibition at 30 µM is 87%.

Q: How did the inhibition at 30 µM turn out when `CCCSc1nc(N2CC[C@@H](CC(=O)O)C2)ccc1C(=O)NC1C2CC3CC1CC(O)(C3)C2` (stereo partly drawn) [Example 79, 2-[(3S)-1-[5-[((2r,5s)-5-hydroxy-2-adamantyl)carbamoyl]-6-propylsulfanyl-pyridin-2-yl]pyrrolidin-3-yl]acetic acid] was run?
A: Its inhibition at 30 µM is 90%.

Q: With `CCCSc1nc(N2CC[C@H](CC(=O)O)C2)ccc1C(=O)N[C@H]1C2CC3CC1C[C@@](O)(C3)C2` [Example 90, 2-[(3R)-1-[5-[[(2r,5s)-5-hydroxy-2-adamantyl]carbamoyl]-6-propylsulfanyl-pyridin-2-yl]pyrrolidin-3-yl]acetic acid] as the compound, how does the inhibition at 30 µM read?
A: The inhibition at 30 µM was 88%.

Q: For `CCCSc1nc(N2CC[C@H](C(=O)O)C2)ccc1C(=O)NC1C2CC3CC(C2)CC1C3` (stereo partly drawn) [Example 67, (3S)-1-[5-(2-adamantylcarbamoyl)-6-propylsulfanyl-pyridin-2-yl]pyrrolidine-3-carboxylic acid], which inhibition at 30 µM is on record?
A: Its inhibition at 30 µM is 88%.

Q: For `O=C(O)C[C@H]1CCCN(c2ccc(C(=O)NC3CCCCC3)c(SC3CCCCC3)n2)C1` [Example 58, 2-[(3R)-1-[5-(cyclohexylcarbamoyl)-6-cyclohexylsulfanyl-pyridin-2-yl]-3-piperidyl]acetic acid], which inhibition at 30 µM is on record?
A: The inhibition at 30 µM was 83%.

Q: `CCCSc1nc(N2CCC(C(C)C(=O)O)CC2)ccc1C(=O)NC1CCCCC1` (stereo not drawn) [Example 28, 2-[1-[5-(cyclohexylcarbamoyl)-6-propylsulfanyl-pyridin-2-yl]-4-piperidyl]propanoic acid] was tested. Which inhibition at 30 µM did it give?
A: The inhibition at 30 µM was 86%.
